Results on four molecules are retold here after patent US5491172A, “N-acyl sulfamic acid esters (or thioesters), N-acyl sulfonamides, and N-sulfonyl carbamic acid esters (or thioesters) as hypercholesterolemic agents” (Warner-Lambert Company, priority 1994, dated 1996).

Assay [1] concerns the target acyl-CoA:cholesterol acyltransferase (ACAT). Put plainly: in vitro ACAT inhibition (LAI): radiolabeled cholesterol oleate formed from radiolabeled oleic acid in rat liver microsomes. In kind it is biochemical. The following applies: concentration required to inhibit enzyme activity by 50%. As for the experimental part: The ability of representative compounds of the present invention to inhibit ACAT was measured using an in vitro test more fully described in Field FJ, Salone RG, Biochemica et Biophysica, 1982;712:557-570. The test assesses the ability of a test compound to inhibit the acylation of cholesterol by oleic acid by measuring the amount of radiolabeled cholesterol oleate formed from radiolabeled oleic acid in a tissue preparation containing rat liver microsomes.
Background: Microsomes from liver hold many membrane-bound enzymes, among them those of drug oxidation.

The nature of assay [2]: in vivo screen APCC: blood cholesterol in rats fed overnight a high fat, high cholesterol (PCC) diet. The note with it: male Sprague-Dawley rats, dosed at 4 PM, PCC diet with 0.5% cholic acid overnight, blood sampled 8 AM, dose not given. The source says: In one in vivo screen designated APCC, male Sprague-Dawley rats (200 to 225 g) were randomly divided into treatment groups and dosed at 4 PM with either vehicle (CMC/Tween) or suspensions of compounds in vehicle. The normal chow diet was then replaced with a high fat, high cholesterol diet (designated PCC) containing 0.5% cholic acid. The rats consumed this diet ad libitum during the night and were sacrificed at 8 AM to obtain blood samples for cholesterol analysis using standard procedures. Statistical differences between mean cholesterol values for the same vehicle were determined using analysis of variance followed by Fisher's least significant test.

Where a name gives a salt, the structure may show the parent alone.

The IC50 is the point on the concentration scale where inhibition reaches its midpoint. In the case of `CCC(C)C(C(=O)NS(=O)(=O)Oc1c(C(C)C)cccc1C(C)C)c1ccccc1` (centres unmarked) [Example 45, sulfamic acid(3-methyl-1-oxo-2-phenylpentyl)-2,6-bis(1-methylethyl)phenyl ester sodium salt], in assay [1] (sodium salt), the IC50 stood at 5.6 µM. In addition, the “% Change (mg/dl) in cholesterol” value in assay [2] (sodium salt) is reported as -63%.
In assay [1], `CC(C)c1cc(C(C)C)c(OCC(=O)NS(=O)(=O)Oc2c(C(C)C)cccc2C(C)C)c(C(C)C)c1` [Example 46, sulfamic acid[[2,4,6-tris(1-methylethyl)phenoxy]acetyl]-2,6-bis(1-methylethyl)phenyl ester] came in with an IC50 of 34 µM. Moreover, the “% Change (mg/dl) in cholesterol” value in assay [2] is on record as -57%.
The matching figures for `CC(C)c1cccc(C(C)C)c1OCC(=O)NS(=O)(=O)Oc1c(C(C)C)cccc1C(C)C` [Example 47, sulfamic acid[[2,6-bis(1-methylethyl)phenoxy]acetyl]-2,6-bis(1-methylethyl)phenyl ester]: 38 µM and -46%.
The molecule `CC(C)c1cc(C(C)C)c(CC(=O)NS(=O)(=O)Oc2c(-c3ccccc3)cccc2-c2ccccc2)c(C(C)C)c1` [Example 48, sulfamic acid[[2,4,6-tris(1-methylethyl)phenyl]acetyl]-2,6-bis(phenyl)phenyl ester] registered an IC50 in assay [1] of 8.3 µM. In assay [2], the “% Change (mg/dl) in cholesterol” value is listed as -73%.
